Results from ChEMBL document CHEMBL5346882 (Eur J Med Chem, 2023).
Each block holds one compound with its values, some of them ahead of it.

Columns and labels:
[1] = molecular target: Cytochrome P450 2D6 (Homo sapiens, UniProt P10635); experiment: Inhibition of CYP2D6 (unknown origin) at 10 uM; assay type: ADME
[2] = Cmax in CD-1 mouse brain at 30 mg/kg, ip administered as single dose and measured after 15 to 240 mins by LC-MS/MS analysis; assay type: ADME, organism-based; parameters: time upper 240 min, time lower 15 min, dose 30 mg/kg, route ip
[3] = Apparent clearance in CD-1 mouse plasma at 30 mg/kg, ip administered as single dose and measured after 15 to 240 mins by LC-MS/MS analysis; assay type: ADME, organism-based; conditions: time 15-240 min, read-out: CL(app)
[4] = Cmax in CD-1 mouse plasma at 30 mg/kg, ip administered as single dose and measured after 15 to 240 mins by LC-MS/MS analysis; assay type: ADME, organism-based; parameters: time upper 240 min, time lower 15 min, dose 30 mg/kg, route ip
[5] = Tmax in CD-1 mouse brain at 30 mg/kg, ip administered as single dose and measured after 15 to 240 mins by LC-MS/MS analysis; assay type: ADME, organism-based; conditions: time 15-240 min
[6] = MRT in CD-1 mouse plasma at 30 mg/kg, ip administered as single dose and measured after 15 to 240 mins by LC-MS/MS analysis; assay type: ADME, organism-based; conditions: time 15-240 min
[7] = Cmax in CD-1 mouse brain at 10 mg/kg, ip administered as single dose and measured after 15 to 240 mins by LC-MS/MS analysis; assay type: ADME, organism-based; parameters: time 15-240 min, dose 10 mg/kg, route ip
[8] = Drug metabolism in human liver microsomes assessed as N-dealkylation mediated metabolite formation; assay type: ADME, Microsome
[9] = Half life in CD-1 mouse brain at 10 mg/kg, ip administered as single dose and measured after 15 to 240 mins by LC-MS/MS analysis; assay type: ADME, organism-based; conditions: time 15-240 min
[10] = MRT in CD-1 mouse brain at 10 mg/kg, ip administered as single dose and measured after 15 to 240 mins by LC-MS/MS analysis; assay type: ADME, organism-based; conditions: time 15-240 min
[11] = AUC (0 to t) in CD-1 mouse brain at 30 mg/kg, ip administered as single dose and measured after 15 to 240 mins by LC-MS/MS analysis; assay type: ADME, organism-based; parameters: time upper 240 min, dose 30 mg/kg, time lower 15 min, route ip
[12] = cells; conditions: Mus musculus, HEK293
Description: Inhibition of mouse GAT3 expressed in HEK293 cells assessed as reduction in [3H]-GABA uptake incubated for 10 mins

[13] = Tmax in CD-1 mouse plasma at 10 mg/kg, ip administered as single dose and measured after 15 to 240 mins by LC-MS/MS analysis; assay type: ADME, organism-based; conditions: time 15-240 min
[14] = Apparent clearance in CD-1 mouse plasma at 10 mg/kg, ip administered as single dose and measured after 15 to 240 mins by LC-MS/MS analysis; assay type: ADME, organism-based; conditions: time 15-240 min, read-out: CL(app)
[15] = AUC (0 to t) in CD-1 mouse plasma at 10 mg/kg, ip administered as single dose and measured after 15 to 240 mins by LC-MS/MS analysis; assay type: ADME, organism-based; parameters: time upper 240 min, dose 10 mg/kg, time lower 15 min, route ip
[16] = AUC (0 to t) in CD-1 mouse plasma at 30 mg/kg, ip administered as single dose and measured after 15 to 240 mins by LC-MS/MS analysis; assay type: ADME, organism-based; parameters: dose 30 mg/kg, time 15-240 min, route ip
[17] = Tmax in CD-1 mouse plasma at 30 mg/kg, ip administered as single dose and measured after 15 to 240 mins by LC-MS/MS analysis; assay type: ADME, organism-based; conditions: time 15-240 min
[18] = Cmax in CD-1 mouse plasma at 10 mg/kg, ip administered as single dose and measured after 15 to 240 mins by LC-MS/MS analysis; assay type: ADME, organism-based; parameters: dose 10 mg/kg, time 15-240 min, route ip
[19] = Half life in CD-1 mouse plasma at 30 mg/kg, ip administered as single dose and measured after 15 to 240 mins by LC-MS/MS analysis; assay type: ADME, organism-based; conditions: time 15-240 min
[20] = Apparent volume of distribution in CD-1 mouse plasma at 30 mg/kg, ip administered as single dose and measured after 15 to 240 mins by LC-MS/MS analysis; assay type: ADME, organism-based; conditions: in vivo, time 15-240 min
[21] = MRT in CD-1 mouse plasma at 10 mg/kg, ip administered as single dose and measured after 15 to 240 mins by LC-MS/MS analysis; assay type: ADME, organism-based; conditions: time 15-240 min
[22] = Apparent volume of distribution in CD-1 mouse plasma at 10 mg/kg, ip administered as single dose and measured after 15 to 240 mins by LC-MS/MS analysis; assay type: ADME, organism-based; conditions: in vivo, time 15-240 min
[23] = Ratio of brain to plasma partition coefficient in CD-1 mouse at 30 mg/kg, ip administered as single dose and measured after 15 to 240 mins by LC-MS/MS analysis; assay type: ADME, organism-based; conditions: time 15-240 min, read-out: BPR
[24] = molecular target: ATP-dependent translocase ABCB1 (Homo sapiens, UniProt P08183); experiment: Substrate activity at P-gp membranes (unknown origin) at 100 uM incubated for 40 mins by luminescent glo assay relative to control; assay type: ADME, cell membranes, Membrane
[25] = Tmax in CD-1 mouse brain at 10 mg/kg, ip administered as single dose and measured after 15 to 240 mins by LC-MS/MS analysis; assay type: ADME, organism-based; conditions: time 15-240 min
[26] = molecular target: T1, GABA transporter 4 (Mus musculus, UniProt P31650); experiment: Inhibition of mouse GAT4 expressed in HEK293 cells assessed as reduction in [3H]-GABA uptake incubated for 10 mins; assay type: cell-based
T1 sequence (P31650 whole entry): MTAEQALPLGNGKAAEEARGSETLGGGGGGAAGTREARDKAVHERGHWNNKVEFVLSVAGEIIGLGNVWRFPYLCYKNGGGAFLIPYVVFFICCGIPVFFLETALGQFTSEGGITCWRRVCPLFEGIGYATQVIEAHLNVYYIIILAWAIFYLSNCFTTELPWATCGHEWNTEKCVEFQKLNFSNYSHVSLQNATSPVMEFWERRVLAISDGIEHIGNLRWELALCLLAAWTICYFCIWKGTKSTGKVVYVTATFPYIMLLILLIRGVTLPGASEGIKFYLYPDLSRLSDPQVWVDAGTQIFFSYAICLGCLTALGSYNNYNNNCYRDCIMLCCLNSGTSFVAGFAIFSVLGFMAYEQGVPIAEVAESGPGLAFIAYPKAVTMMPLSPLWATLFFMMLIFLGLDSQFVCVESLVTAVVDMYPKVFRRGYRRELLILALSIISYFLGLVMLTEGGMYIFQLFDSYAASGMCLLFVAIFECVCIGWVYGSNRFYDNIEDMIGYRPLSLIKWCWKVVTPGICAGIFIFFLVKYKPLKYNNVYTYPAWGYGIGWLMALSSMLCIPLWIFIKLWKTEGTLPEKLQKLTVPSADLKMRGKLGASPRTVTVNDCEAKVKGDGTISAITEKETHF

[27] = AUC (0 to t) in CD-1 mouse brain at 10 mg/kg, ip administered as single dose and measured after 15 to 240 mins by LC-MS/MS analysis; assay type: ADME, organism-based; parameters: time 15-240 min, dose 10 mg/kg, route ip
[28] = Metabolic stability in human liver microsomes assessed as parent compound remaining incubated for 120 mins in presence of NADPH regeneration system by UPLC/MS analysis; assay type: ADME, Microsome; conditions: read-out: Stability
[29] = cells; conditions: Mus musculus, HEK293; remark: listed apart in the source
Description: Inhibition of mouse GAT2 expressed in HEK293 cells assessed as reduction in [3H]-GABA uptake incubated for 10 mins

[30] = Ratio of brain to plasma partition coefficient in CD-1 mouse at 10 mg/kg, ip administered as single dose and measured after 15 to 240 mins by LC-MS/MS analysis; assay type: ADME, organism-based; conditions: time 15-240 min, read-out: BPR
[31] = molecular target: Cytochrome P450 3A4 (Homo sapiens, UniProt P08684); experiment: Inhibition of CYP3A4 (unknown origin) at 10 uM; assay type: ADME
[32] = molecular target: Sodium- and chloride-dependent GABA transporter 1 (Mus musculus, UniProt P31648); experiment: Inhibition of mouse GAT1 expressed in HEK293 cells assessed as reduction in [3H]-GABA uptake incubated for 10 mins; assay type: cell-based
[33] = Half life in CD-1 mouse brain at 30 mg/kg, ip administered as single dose and measured after 15 to 240 mins by LC-MS/MS analysis; assay type: ADME, organism-based; conditions: time 15-240 min
[34] = Half life in CD-1 mouse plasma at 10 mg/kg, ip administered as single dose and measured after 15 to 240 mins by LC-MS/MS analysis; assay type: ADME, organism-based; conditions: time 15-240 min
[35] = MRT in CD-1 mouse brain at 30 mg/kg, ip administered as single dose and measured after 15 to 240 mins by LC-MS/MS analysis; assay type: ADME, organism-based; conditions: time 15-240 min
[36] = molecular target: Beta-secretase 1 (Homo sapiens, UniProt P56817); experiment: Inhibition of human recombinant BACE-1 expressed in baculovirus using swedish mutant of APP based Rh-EVNLDAEFK-quencher as substrate incubated for 60 mins by FRET assay
[37] = molecular target: Cholinesterase (Homo sapiens, UniProt P06276); experiment: Inhibition of human recombinant BuChE using butyrylthiocholine iodide as substrate preincubated for 5 mins followed by substrate addition and measured every 2 mins by DTNB-reagent based Ellman's method
Sequence of Cholinesterase (P06276 whole entry): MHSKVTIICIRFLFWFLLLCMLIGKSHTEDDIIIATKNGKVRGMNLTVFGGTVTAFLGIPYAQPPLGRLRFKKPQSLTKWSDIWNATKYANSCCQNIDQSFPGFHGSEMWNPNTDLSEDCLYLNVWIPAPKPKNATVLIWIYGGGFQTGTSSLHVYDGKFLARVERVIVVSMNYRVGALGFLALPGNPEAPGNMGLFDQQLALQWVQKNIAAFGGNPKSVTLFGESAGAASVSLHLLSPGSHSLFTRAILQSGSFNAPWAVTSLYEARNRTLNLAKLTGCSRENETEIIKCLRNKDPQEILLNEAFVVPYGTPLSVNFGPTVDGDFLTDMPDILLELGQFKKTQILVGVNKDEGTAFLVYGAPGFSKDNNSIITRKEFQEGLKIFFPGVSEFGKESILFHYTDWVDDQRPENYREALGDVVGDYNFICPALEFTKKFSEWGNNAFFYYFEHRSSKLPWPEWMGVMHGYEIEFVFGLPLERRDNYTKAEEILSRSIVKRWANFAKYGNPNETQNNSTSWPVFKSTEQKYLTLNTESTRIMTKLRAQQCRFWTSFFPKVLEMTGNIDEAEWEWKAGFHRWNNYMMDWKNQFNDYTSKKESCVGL

Sequence of Beta-secretase 1 (P56817 whole entry): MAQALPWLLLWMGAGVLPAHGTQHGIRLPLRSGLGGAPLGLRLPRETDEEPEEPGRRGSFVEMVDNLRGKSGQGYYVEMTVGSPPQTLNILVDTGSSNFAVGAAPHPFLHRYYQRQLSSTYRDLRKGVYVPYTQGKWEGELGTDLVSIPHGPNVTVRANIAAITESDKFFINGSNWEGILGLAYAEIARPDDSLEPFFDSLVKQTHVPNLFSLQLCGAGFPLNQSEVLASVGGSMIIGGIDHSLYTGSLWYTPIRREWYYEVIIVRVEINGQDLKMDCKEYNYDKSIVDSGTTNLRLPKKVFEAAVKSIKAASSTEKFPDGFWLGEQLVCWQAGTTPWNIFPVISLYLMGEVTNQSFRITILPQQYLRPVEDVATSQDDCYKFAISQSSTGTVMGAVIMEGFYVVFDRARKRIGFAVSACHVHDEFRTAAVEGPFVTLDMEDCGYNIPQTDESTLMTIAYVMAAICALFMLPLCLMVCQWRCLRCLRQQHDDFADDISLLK
Sequence of ATP-dependent translocase ABCB1 (P08183 whole entry): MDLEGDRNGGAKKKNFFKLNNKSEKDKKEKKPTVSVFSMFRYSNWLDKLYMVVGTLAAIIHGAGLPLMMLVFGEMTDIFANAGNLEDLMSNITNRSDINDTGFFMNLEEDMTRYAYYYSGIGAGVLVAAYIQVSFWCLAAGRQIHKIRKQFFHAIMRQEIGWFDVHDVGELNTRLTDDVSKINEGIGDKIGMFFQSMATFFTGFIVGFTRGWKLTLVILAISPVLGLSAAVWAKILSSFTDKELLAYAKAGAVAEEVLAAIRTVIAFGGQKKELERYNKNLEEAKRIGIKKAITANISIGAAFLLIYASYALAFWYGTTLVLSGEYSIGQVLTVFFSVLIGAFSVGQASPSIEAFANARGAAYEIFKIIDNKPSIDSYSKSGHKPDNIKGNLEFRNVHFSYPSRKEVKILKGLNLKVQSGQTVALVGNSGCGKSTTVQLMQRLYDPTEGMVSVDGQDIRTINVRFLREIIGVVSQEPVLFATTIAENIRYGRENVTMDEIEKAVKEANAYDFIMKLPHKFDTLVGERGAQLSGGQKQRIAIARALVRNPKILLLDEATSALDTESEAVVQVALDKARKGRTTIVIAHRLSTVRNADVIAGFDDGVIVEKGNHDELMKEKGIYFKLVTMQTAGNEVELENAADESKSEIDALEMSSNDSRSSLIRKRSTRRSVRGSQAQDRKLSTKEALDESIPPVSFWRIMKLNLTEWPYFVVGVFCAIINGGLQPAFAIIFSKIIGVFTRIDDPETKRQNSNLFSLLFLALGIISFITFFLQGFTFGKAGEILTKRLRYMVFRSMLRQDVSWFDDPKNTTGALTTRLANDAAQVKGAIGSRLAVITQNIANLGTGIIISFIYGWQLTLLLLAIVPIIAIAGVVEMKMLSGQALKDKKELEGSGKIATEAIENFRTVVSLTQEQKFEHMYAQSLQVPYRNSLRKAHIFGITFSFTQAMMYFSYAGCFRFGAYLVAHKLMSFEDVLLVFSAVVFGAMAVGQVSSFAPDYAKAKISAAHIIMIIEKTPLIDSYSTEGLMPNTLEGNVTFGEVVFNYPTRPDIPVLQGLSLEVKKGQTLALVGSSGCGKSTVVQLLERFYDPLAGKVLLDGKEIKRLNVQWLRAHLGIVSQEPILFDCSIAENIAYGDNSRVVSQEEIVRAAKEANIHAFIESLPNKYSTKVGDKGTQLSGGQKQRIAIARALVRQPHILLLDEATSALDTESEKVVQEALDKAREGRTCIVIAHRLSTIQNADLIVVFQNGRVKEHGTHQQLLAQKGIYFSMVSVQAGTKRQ
Sequence of Cytochrome P450 2D6 (P10635 whole entry): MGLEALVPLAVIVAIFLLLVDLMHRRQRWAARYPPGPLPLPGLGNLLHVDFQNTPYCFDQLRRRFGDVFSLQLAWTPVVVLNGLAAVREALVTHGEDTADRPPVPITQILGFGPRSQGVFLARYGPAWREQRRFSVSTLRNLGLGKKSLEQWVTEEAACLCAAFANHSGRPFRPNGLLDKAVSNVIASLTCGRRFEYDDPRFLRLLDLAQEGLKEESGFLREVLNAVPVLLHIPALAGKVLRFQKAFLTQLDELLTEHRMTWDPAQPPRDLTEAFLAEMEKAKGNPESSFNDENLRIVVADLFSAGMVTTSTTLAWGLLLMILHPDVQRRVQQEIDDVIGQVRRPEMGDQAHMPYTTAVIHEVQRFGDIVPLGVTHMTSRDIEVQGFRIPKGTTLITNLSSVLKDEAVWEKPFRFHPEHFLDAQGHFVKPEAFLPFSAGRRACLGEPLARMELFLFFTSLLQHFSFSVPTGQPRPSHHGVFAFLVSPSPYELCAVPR
Sequence of Cytochrome P450 3A4 (P08684 whole entry): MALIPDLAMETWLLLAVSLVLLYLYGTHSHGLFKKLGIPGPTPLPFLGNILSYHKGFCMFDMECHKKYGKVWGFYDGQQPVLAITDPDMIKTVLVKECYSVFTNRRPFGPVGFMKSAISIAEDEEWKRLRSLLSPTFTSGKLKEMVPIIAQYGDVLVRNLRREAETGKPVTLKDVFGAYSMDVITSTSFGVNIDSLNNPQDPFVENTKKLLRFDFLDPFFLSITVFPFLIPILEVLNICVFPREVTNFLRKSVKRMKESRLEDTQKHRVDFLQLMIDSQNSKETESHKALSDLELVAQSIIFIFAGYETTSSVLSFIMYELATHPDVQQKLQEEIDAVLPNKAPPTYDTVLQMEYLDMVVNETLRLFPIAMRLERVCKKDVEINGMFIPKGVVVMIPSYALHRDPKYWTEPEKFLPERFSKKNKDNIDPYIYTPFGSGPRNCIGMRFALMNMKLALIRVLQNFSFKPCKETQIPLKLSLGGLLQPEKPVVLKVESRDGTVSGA

inhibition (INH) [1]: Active
Cmax [2]: 44.3 ng/mL
CL/F [3]: 1070 mL/min/kg
Cmax [4]: 312 ng/mL
Tmax [5]: 0.25 h
MRT [6]: 1.03 h
Cmax [7]: 27.4 ng/mL
Drug metabolism [8]: Metabolite_Detected
half-life [9]: 5.84 h
MRT [10]: 1.88 h
AUC(0-t) [11]: 122 ng·h/mL
IC50 [12]: > 10 µM
Tmax [13]: 0.25 h
CL/F [14]: 577 mL/min/kg
AUC(0-t) [15]: 247 ng·h/mL
AUC(0-t) [16]: 441 ng·h/mL
Tmax [17]: 0.25 h
Cmax [18]: 192 ng/mL
half-life [19]: 0.912 h
Vz [20]: 84.4 L/kg
MRT [21]: 1.24 h
Vz [22]: 80 L/kg
Kp [23]: 0.28
Activity [24]: <= 190%
Tmax [25]: 0.25 h
IC50 [26]: > 10 µM
AUC(0-t) [27]: 85.1 ng·h/mL
remaining at 2 h [28]: > 80%
IC50 [29]: > 10 µM
Kp [30]: 0.34
inhibition (INH) [31]: Active
IC50 [32]: > 10 µM
half-life [33]: 4.24 h
half-life [34]: 1.6 h
MRT [35]: 1.8 h
SMILES: O=C(CC(c1ccccc1)c1ccccc1)NCC(O)CNCC1CCCCC1 (configuration not stated)

SMILES: CC(C)(C)c1cccc(CNCC(O)CNCCC(c2ccccc2)c2ccccc2)c1 (configuration not stated)
IC50 [36]: 41 µM
IC50 [37]: 6 µM
